Converted amounts (≈) assume the structure as drawn. Where two headings read alike, the source gives them in different places. Non-standard residues stand in square brackets, D forms with d. Residues, ends and D or L forms follow the SMILES beside them. Bip = N[C@@H](Cc1ccc(-c2ccccc2)cc1)C(=O)O
Columns and labels:
E. coli K12 = type: cell-based, Escherichia coli; conditions: K12
Protocol: (§1) The bacterial strains used here included Gram-positive bacteria Staphylococcus aureus USA300 LAC, Staphylococcus epidermidis 1457, Bacillus subtilis 168, and Gram-negative Escherichia coli K12. Clinical strains of S. aureus, including Mu50, UAMS-1 and Newman, were also evaluated.
(§2) The antimicrobial activity of peptides was evaluated using a standard broth microdilution protocol (Wang, G. (2008) J. Biol. Chem., 283:32637-32643). In brief, exponential phase bacteria at 10^6 CFU were incubated with serially diluted peptides overnight for ˜20 hours at 37° C. The plates were read on a ChroMate® 4300 Microplate Reader at 630 nm (GMI, Ramsey, Minn.). […] In addition, the effects of human serum (up to 10%), pH (6.8, 7.4 and 8.0) and 150 mM sodium chloride (NaCl) on MICs against S. aureus USA300 were also evaluated (Mishra et al. (2015) RSC Advances 5:59758-59769).

Hemolytic assay = type: cell-based; conditions: red blood cells, hemolysis
Protocol: Hemolytic analysis of selected peptides was performed using an established protocol (Mishra et al. (2015) RSC Advances 5:59758-59769). Briefly, human blood cells (UNMC Blood Bank) were washed three times with phosphate buffer saline (PBS) and diluted to a 2% solution. After peptide treatment, incubation at 37° C. for one hour, and centrifugation at 13,000 rpm, aliquots of the supernatant were transferred to a fresh 96-well microplate. To assess peptide cytotoxicity, the amount of hemoglobin released was measured at 545 nm. The percent lysis was calculated by assuming 100% release when human blood cells were treated with 1% TRITON™ X-100, and 0% release when incubated with PBS buffer. The hemolytic assays using chicken, bovine, and porcine blood cells (Lampire Biological Laboratories, Inc.) were performed in the same manner.

MTS cytotoxicity assay [1] = type: cell-based; conditions: human, HeLa CCL-2 cells
Protocol: (§3) HeLa CCL-2 epithelial adenocarcinoma cells from American Type Culture Collection (ATCC) were maintained in DMEM high glucose media with 4 mM L-glutamine (NyClone) and 100 U/mL penicillin, 100 μg/mL streptomycin (pen/strep) (Life Technologies), and 10% (v/v) inactivated fetal bovine serum (FBS) (NyClone). Cells were grown in 5% CO2 at 37° C. and were detached from the culturing dish at 80% confluency using 0.025% trypsin-EDTA (NyClone) treatment. Peptide influence on the cell viability was estimated by using the MTS assay according to the manufacturer's protocol (MTS, CellTiter96® AQ One Solution Cell Proliferation Assay, Promega) with minor modifications and as described elsewhere (Mishra et al. (2015) RSC Advances 5:59758-59769). In short, cells were cultured in flat bottomed 96 well microtiter plates (Corning Life Science) at a seeding density of 20,000 cells/well. At confluence ˜100% achieved after 20-24 hours of cultivation, the cells were washed twice with 100 μL Dulbecco's Phosphate Buffered Saline (Life Technologies). Further, 90 μL of DMEM media with 10% FBS, pen/step was added before exposure to 10 μL of the peptide solution in the concentration range 12.5-100 μM. Plates were incubated at 37° C. After 1 hour, 10 μL MTS, CellTiter96® was added. Plates were further incubated for another 2 hours at 37° C. and finally, the absorbance was measured on ChroMate® reader (Awareness Technology) at 492 nm. Culture medium and 0.2% SDS were used as negative and positive controls, respectively.

S. epidermidis 1457 = type: cell-based, Staphylococcus epidermidis
Protocol: as §1, §2

[2] = system: Candida albicans ATCC 10231; type: cell-based; conditions: ATCC 10231, 48 h
Protocol: (§4) Fungal strains used in this study include Candida albicans ATCC 10231, C. glabrata ATCC 2001 and C. tropicalis ATCC 13803. The fungi were grown in Remel Dex broth (Thermo Fisher Scientific, KS). Antifungal assays were conducted essentially as described for antibacterial assays above, except for a higher starting density at an OD600 0.02 and a longer incubation time of ˜48 hours prior to microplate reading (Mishra et al. (2015) RSC Advances 5:59758-59769).

C. glabrata ATCC 2001 = type: cell-based, Candida glabrata; conditions: ATCC 2001, 48 h
Protocol: as §4

C. tropicalis ATCC 13803 = type: cell-based, Candida tropicalis; conditions: ATCC 13803, 48 h
Protocol: as §4

S. aureus USA300 [3] = type: cell-based, Staphylococcus aureus
Protocol: as §1, §2

S. aureus Newman = type: cell-based, Staphylococcus aureus
Protocol: as §1, §2

S. aureus Mu50 = type: cell-based, Staphylococcus aureus
Protocol: as §1, §2

S. aureus UAMS-1 = type: cell-based, Staphylococcus aureus
Protocol: as §1, §2

MTS cytotoxicity assay [4] = type: cell-based; conditions: human
Protocol: as §3
Human skin HaCaT (immortalized keratinocyte from AddexBio, T0020001) and kidney HEK293 cells were also cultivated for cytotoxicity evaluation of the peptides in a similar manner.

S. aureus USA300 [5] = type: cell-based, Staphylococcus aureus; conditions: USA300
Protocol: The minimal bactericidal concentration (MBC) was determined by plating 50 μl of the content in the clear wells of the above MIC assays. MBC was determined on the petri dishes without bacterial colony formation after overnight growth (Wang et al. (2012) Biochemistry 51:653-664).

B. subtilis 168 = type: cell-based, Bacillus subtilis
Protocol: as §1, §2

A. baumannii B2367-12 = type: cell-based, Acinetobacter baumannii
Protocol: (§5) Bacterial strains used in this study included Enterococcus faecium ATCC51559, Staphylococcus aureus USA300 LAC, Klebsiella pneumoniae ATCC 13883, Acinetobacter baumannii B2367-12, Pseudomonas aeruginosa PAO1, Enterobacter cloacae B2366-12 and Escherichia coli ATCC 25922, wherein the first six constituting the ESKAPE pathogens. Tryptic soy broth (TSB) for bacterial growth was obtained from BD Bioscience (Sparks, Md.).
(§6) The antibacterial activity of peptides was evaluated using a standard broth microdilution protocol as described (Wang et al. (2012) Antimicrob. Agents Chemother., 56:845-856). In brief, 5 μl of each bacterium (stored at −80° C.) were inoculated into TSB medium (2 ml) and grown overnight. A second inoculation was made in the morning by delivering 10 μl of the overnight culture to a fresh TSB medium. After 2-3 hours growth at 37° C., 225 rpm, logarithmic phase bacterial cultures (OD600≈0.5) were diluted and partitioned into a 96-well polystyrene microplate with ˜10^5 colony forming units (CFU) per well (90 μl aliquots). After treatment with 10 μl of peptide solutions at various concentrations, microplates were incubated at 37° C. overnight and read on a ChroMate® 4300 Microplate Reader at 630 nm (GMI, Ramsey, Minn.). The medium was used as a blank where no bacteria should grow.

E. coli ATCC 25922 = type: cell-based, Escherichia coli
Protocol: as §5, §6

E. faecium ATCC51559 = type: cell-based, Enterococcus faecium
Protocol: as §5, §6

S. aureus USA300 LAC = type: cell-based, Staphylococcus aureus
Protocol: as §5, §6

P. aeruginosa PAO1 = type: cell-based, Pseudomonas aeruginosa
Protocol: as §5, §6

E. cloacae B2366-12 = type: cell-based, Enterobacter cloacae
Protocol: as §5, §6

## CC[C@H](C)[C@H](NC(=O)[C@H](CCCNC(=N)N)NC(=O)[C@H](CCCCN)NC(=O)[C@H](CC(C)C)NC(=O)[C@H](Cc1c[nH]c2ccccc12)NC(=O)[C@H](Cc1c[nH]c2ccccc12)NC(=O)[C@@H](N)Cc1c[nH]c2ccccc12)C(=O)N[C@@H](Cc1c[nH]c2ccccc12)C(N)=O [TetraF2W-KR, WWWLKRIW] (H-WWWLKRIW-NH2; N-terminus and C-terminus assumed)
E. coli K12
  MIC E. coli K12: 12.5 to 25 µM
Hemolytic assay; chicken, read-out: LC50 Chicken RBCs
  CC50 at 1 hour: 35 µM
Hemolytic assay; human, read-out: LC50 Human RBCs
  CC50 at 1 hour: 30 µM
Hemolytic assay; pig, read-out: LC50 Porcine RBCs
  CC50 at 1 hour: 50 µM
MTS cytotoxicity assay [1]
  CC50 at 1 hour: 100 µM
S. epidermidis 1457
  MIC S. epidermidis 1457: 12.5 µM (≈ 15.9 µg/mL)
[2]
  MIC Candida albicans: 12.5 µM (≈ 15.9 µg/mL)
C. glabrata ATCC 2001
  MIC Candida glabrata: 12.5 µM (≈ 15.9 µg/mL)
C. tropicalis ATCC 13803
  MIC Candida tropicalis: 3.1 to 6.2 µM
S. aureus USA300 [3]; S. aureus USA300
  change in MIC on drop of pH from 8 to 6.8: two-fold
S. aureus USA300 [3]; USA300
  Antimicrobial activity (MIC) 150 mM NaCl: 3.1 µM
  Antimicrobial activity (MIC) USA300: 3.1 µM
  MIC S. aureus USA300: 3.1 µM (≈ 3.94 µg/mL)
S. aureus USA300 [3]; USA300, pH 6.8
  Antimicrobial activity (MIC) pH 6.8: 6.2 μM
S. aureus USA300 [3]; USA300, pH 7.4
  Antimicrobial activity (MIC) Normal medium (pH 7.4): 3.1 μM
S. aureus USA300 [3]; USA300, pH 8
  Antimicrobial activity (MIC) pH 8: 3.1 μM
S. aureus Newman
  Antimicrobial activity (MIC) Newman: 3.1 to 6.2 µM
S. aureus Mu50
  Antimicrobial activity (MIC) Mu50: 6.2 µM
S. aureus UAMS-1
  Antimicrobial activity (MIC) UAMS-1: 6.2 µM
MTS cytotoxicity assay [4]; HEK293 cells
  CC50 at 1 hour: 55 µM
MTS cytotoxicity assay [4]; HaCaT cells
  CC50 at 1 hour: 60 µM
S. aureus USA300 [5]
  MBC S. aureus USA300: 12.5 µM (≈ 15.9 µg/mL)
B. subtilis 168
  MIC B. subtilis 168: 6.2 µM (≈ 7.89 µg/mL)

## CC(C)C[C@H](NC(=O)[C@H](CC(N)=O)NC(=O)[C@H](CCCNC(=N)N)NC(=O)[C@@H](CC(C)C)NC(=O)[C@H](Cc1ccc(-c2ccccc2)cc1)NC(=O)[C@H](CC(=O)O)NC(=O)[C@H](CCCCN)NC(=O)[C@@H](CC(C)C)NC(=O)[C@H](CCCNC(=N)N)NC(=O)[C@H](CCC(N)=O)NC(=O)[C@@H](NC(=O)[C@@H](CC(C)C)NC(=O)[C@H](CCCNC(=N)N)NC(=O)[C@H](CCCCN)NC(=O)[C@H](Cc1ccc(-c2ccccc2)cc1)NC(=O)CN)C(C)C)C(=O)N[C@H](C(N)=O)C(C)C [Merecidin, reference compound] (H-G[Bip]KR[dL]VQR[dL]KD[Bip][dL]RNLV-NH2; N-terminus and C-terminus assumed)
A. baumannii B2367-12; B2367-12
  MIC AB: 3.1 ± 0 µM (≈ 6.99 µg/mL)
E. coli ATCC 25922; ATCC 25922
  MIC EC: 3.1 ± 0 µM (≈ 6.99 µg/mL)
E. faecium ATCC51559; ATCC51559
  MIC EF: ≤3.1 µM
S. aureus USA300 LAC; USA300
  MIC SA: 3.1 ± 0 µM (≈ 6.99 µg/mL)
P. aeruginosa PAO1; PAO1
  MIC PA: 6.25 ± 0 µM (≈ 14.1 µg/mL)
E. cloacae B2366-12; B2366-12
  MIC ECl: 6.25 ± 0 µM (≈ 14.1 µg/mL)

## CC[C@H](C)[C@H](NC(=O)[C@H](CCCNC(=N)N)NC(=O)[C@H](CCC(N)=O)NC(=O)[C@@H](NC(=O)[C@@H](NC(=O)[C@H](CCCNC(=N)N)NC(=O)[C@H](CCCCN)NC(=O)[C@H](Cc1ccccc1)NC(=O)[C@@H](N)CS)[C@@H](C)CC)C(C)C)C(=O)N[C@@H](CCCCN)C(=O)N[C@@H](CC(=O)O)C(=O)N[C@@H](Cc1ccccc1)C(=O)N[C@@H](CC(C)C)C(=O)N[C@@H](CCCNC(=N)N)C(=O)N[C@@H](CC(N)=O)C(=O)N[C@@H](CC(C)C)C(=O)N[C@H](C(N)=O)C(C)C [CysFK-16] (H-CFKRIVQRIKDFLRNLV-NH2; N-terminus and C-terminus assumed)
A. baumannii B2367-12
  MIC AB: 25 µM (≈ 53.7 µg/mL)
E. coli ATCC 25922
  MIC EC: > 50 µM
E. faecium ATCC51559
  MIC EF: 6.25 µM (≈ 13.4 µg/mL)
S. aureus USA300 LAC
  MIC SA: 18 µM (≈ 38.7 µg/mL)
P. aeruginosa PAO1
  MIC PA: > 50 µM
E. cloacae B2366-12
  MIC ECl: > 50 µM

Reference: US20190048052A1, “ANTI-MICROBIAL PEPTIDES AND COATINGS” (Board of Regents of the University of Nebraska, priority 2016, published 2019)
